The values below come from PubChem BioAssay (NCI).

Among the test systems are SK-OV-3 ovarian; SR leukemia; KM12 colon; SK-MEL-5 melanoma; T-47D breast; BT-549 breast; CAKI-1 renal; SN12C renal; U251 CNS; HOP-62 NSCLC.
What all share (assay): NCI anticancer screen, dose series, 48 h

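Step 1: Grow cells in 96-well plates. Step 2: Expose to compound for 48 hours at 5 concentrations. Step 3: Interpolate endpoints linearly; if unreached, use highest concentration. Abbreviation: GI50, concentration required for 50% inhibition of growth. The concentration for full growth arrest is given as TGI.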

Consider `COc1ccc(-n2nc(C(=O)c3ccccc3)c3nn4c(=O)cc(-c5ccccc5)nc4nc32)cc1`, for which the GI50 was 74.2 µM with SK-OV-3 ovarian; 24.9 µM with SR leukemia; 46.5 µM in the assay with KM12 colon; 41.7 µM in the assay on SK-MEL-5 melanoma; 32.4 µM in the assay with T-47D breast; 55.1 µM in the assay on BT-549 breast. Further, the GI50 was over 100 µM in the assay on CAKI-1 renal, 41.7 µM in the assay on SN12C renal, 39.2 µM in the assay with U251 CNS and 44.1 µM in the assay with HOP-62 NSCLC. Also, the TGI in the assay on SK-OV-3 ovarian, with SR leukemia, with KM12 colon, in the assay with SK-MEL-5 melanoma, in the assay with T-47D breast and in the assay with BT-549 breast was over 100 µM throughout. The TGI in the assay on CAKI-1 renal, in the assay on SN12C renal, in the assay on U251 CNS and in the assay on HOP-62 NSCLC was over 100 µM throughout.
With `Cc1ccc(S(=O)(=O)Nc2cc(=O)[nH]c3c2CCC3)cc1`, the TGI with SK-OV-3 ovarian, in the assay with SR leukemia, in the assay on KM12 colon, in the assay with SK-MEL-5 melanoma, in the assay with T-47D breast and in the assay on BT-549 breast was over 100 µM each time. The TGI with CAKI-1 renal, in the assay with SN12C renal, in the assay with U251 CNS and with HOP-62 NSCLC was over 100 µM each time.
For `CS(=O)(=O)Nc1ccc(NCc2cnc3ccc4[nH]cccc4c23)cc1`, the TGI with SK-OV-3 ovarian was over 100 µM; in the assay with SR leukemia it was 47.7 µM; with KM12 colon, 36.7 µM; with SK-MEL-5 melanoma, 28.8 µM; with T-47D breast, 66.6 µM; in the assay on BT-549 breast it was 73.2 µM. Moreover, the TGI with CAKI-1 renal is 65 µM; in the assay on SN12C renal it was 88.8 µM; in the assay with U251 CNS, 68.9 µM; with HOP-62 NSCLC, over 100 µM.
Turning to `CCC1=C(CC2NCCc3cc(OC)c(OC)cc32)CC2c3ccccc3CCN2C1` (stereo not given), the TGI in the assay on SK-OV-3 ovarian was over 100 µM; in the assay on SR leukemia, 24.1 µM; with KM12 colon, over 100 µM; in the assay with SK-MEL-5 melanoma it was 28 µM; with T-47D breast, 54.5 µM; with BT-549 breast, over 100 µM. The TGI is over 100 µM in the assay with CAKI-1 renal, over 100 µM in the assay with SN12C renal, 27.6 µM in the assay with U251 CNS and over 100 µM with HOP-62 NSCLC.
As to `CS(=O)(=O)Nc1cccc(-c2ccc3ncnc(Nc4cncc(Cl)c4)c3c2)c1`, the GI50 is 1.34 µM with SK-OV-3 ovarian; 1.67 µM in the assay on SR leukemia; 2.92 µM in the assay on KM12 colon; 1.75 µM in the assay on SK-MEL-5 melanoma; 0.726 µM in the assay on T-47D breast; 2.34 µM in the assay with BT-549 breast. Moreover, the GI50 is 2.57 µM with CAKI-1 renal, 2.63 µM in the assay with SN12C renal, 1.64 µM with U251 CNS and 2.7 µM in the assay with HOP-62 NSCLC. The TGI with SK-OV-3 ovarian was 4.99 µM; in the assay on SR leukemia it was 5.47 µM; with KM12 colon, over 100 µM; in the assay on SK-MEL-5 melanoma, 3.74 µM; in the assay with T-47D breast it was 6.36 µM; in the assay on BT-549 breast it was 7.39 µM. In addition, the TGI in the assay on CAKI-1 renal is over 100 µM; in the assay with SN12C renal it was over 100 µM; with U251 CNS, 4.18 µM; in the assay on HOP-62 NSCLC it was 17.8 µM.
As for `COc1cc2cc[n+](C)c(Cc3ccc(Oc4cc(Cc5c6cc(OC)c(OC)cc6cc[n+]5C)ccc4OC)cc3)c2cc1OC`, the TGI in the assay with SK-OV-3 ovarian, in the assay with SR leukemia, with KM12 colon, in the assay on SK-MEL-5 melanoma, in the assay with T-47D breast and with BT-549 breast was over 100 µM in each case. The TGI in the assay on CAKI-1 renal, in the assay on SN12C renal, in the assay on U251 CNS and with HOP-62 NSCLC was over 100 µM throughout.
With `Fc1c(F)c(F)c(CSc2nc3ccccc3[nH]2)c(F)c1F`, the TGI in the assay with SK-OV-3 ovarian, in the assay on SR leukemia, in the assay with KM12 colon, in the assay on SK-MEL-5 melanoma, with T-47D breast and with BT-549 breast was over 100 µM in each case. The TGI in the assay on CAKI-1 renal, in the assay on SN12C renal, in the assay with U251 CNS and in the assay with HOP-62 NSCLC was over 100 µM in each case.
